Results published in ChEMBL document CHEMBL4421722, “Inhibitors of protein prenyltransferases” (2013).
One block for each compound: values may come before it.

How the values were obtained:
[1] = Inhibition of rat recombinant geranylgeranyltransferase type I expressed in Escherichia coli assessed as reduction in geranylgeranylation of RhoA incubated for 30 mins in presence of [3H]GGPP by scintillation counting assay relative to control
[2] = molecular target: T1, Geranylgeranyl transferase type-2 (Homo sapiens, UniProt P53611+Q92696); assay: Inhibition of RabGGTase (unknown origin) using YPTI as substrate protein and [3H]geranylgeranyl pyrophosphate incubated for 20 mins by scintillation counting assay; type: protein-complex assay
T1 sequence (P53611 whole entry): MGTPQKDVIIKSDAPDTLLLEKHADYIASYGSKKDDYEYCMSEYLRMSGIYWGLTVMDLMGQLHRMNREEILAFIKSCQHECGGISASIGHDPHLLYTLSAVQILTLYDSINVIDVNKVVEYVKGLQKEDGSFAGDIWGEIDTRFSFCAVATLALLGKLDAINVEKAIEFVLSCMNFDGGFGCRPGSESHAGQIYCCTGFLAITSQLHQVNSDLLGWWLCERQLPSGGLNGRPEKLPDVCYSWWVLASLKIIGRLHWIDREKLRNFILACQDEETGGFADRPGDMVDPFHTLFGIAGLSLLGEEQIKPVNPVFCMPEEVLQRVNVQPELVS
T1 sequence (Q92696 whole entry): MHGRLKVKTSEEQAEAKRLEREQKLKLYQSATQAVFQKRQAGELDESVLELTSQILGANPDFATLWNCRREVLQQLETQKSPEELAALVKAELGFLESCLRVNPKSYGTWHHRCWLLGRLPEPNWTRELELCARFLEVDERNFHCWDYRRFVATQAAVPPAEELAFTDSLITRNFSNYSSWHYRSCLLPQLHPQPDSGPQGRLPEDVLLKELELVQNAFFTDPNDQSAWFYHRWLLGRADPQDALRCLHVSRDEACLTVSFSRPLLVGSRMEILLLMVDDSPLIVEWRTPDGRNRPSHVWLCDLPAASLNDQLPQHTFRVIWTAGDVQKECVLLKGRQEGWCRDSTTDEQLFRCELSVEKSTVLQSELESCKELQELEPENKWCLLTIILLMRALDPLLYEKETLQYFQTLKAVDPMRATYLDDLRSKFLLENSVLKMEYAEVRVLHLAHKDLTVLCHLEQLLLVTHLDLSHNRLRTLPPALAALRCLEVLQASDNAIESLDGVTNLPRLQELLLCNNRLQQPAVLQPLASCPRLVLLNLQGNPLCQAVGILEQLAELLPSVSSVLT

[3] = molecular target: Protein farnesyltransferase (Rattus norvegicus, UniProt Q02293+Q04631); assay: Inhibition of rat recombinant FTase alpha/beta expressed in Escherichia coli using K-Ras4B as a substrate as and [3H]farnesyl pyrophosphate incubated for 30 mins by scintillation counting assay
K562 = assay: Antiproliferative activity against human K562 cells assessed as inhibition of cell proliferation incubated for 72 hrs by CCK8 assay; type: functional, cell-based; conditions: K562, 72 h
Jurkat = assay: Antiproliferative activity against human Jurkat cells assessed as inhibition of cell proliferation incubated for 72 hrs by CCK8 assay; type: functional, cell-based
[4] = Inhibition of rat recombinant geranylgeranyltransferase type I expressed in Escherichia coli assessed as reduction in geranylgeranylation of K-Ras4B incubated for 30 mins in presence of [3H]GGPP by scintillation counting assay
Rattus norvegicus [5] = organism: Rattus norvegicus; assay: Inhibition of rat recombinant geranylgeranyltransferase type I expressed in Escherichia coli assessed as residual enzyme activity for geranylgeranylation of K-Ras4B at 50 uM incubated for 30 mins in presence of [3H]GGPP by scintillation counting assay relative to control
Rattus norvegicus [6] = organism: Rattus norvegicus; assay: Inhibition of rat recombinant geranylgeranyltransferase type I expressed in Escherichia coli assessed as residual enzyme activity for geranylgeranylation of RhoA at 50 uM incubated for 30 mins in presence of [3H]GGPP by scintillation counting assay relative to control

Structure (SMILES): CCCCCCS[C@H]1[C@@H](C(=O)O)[C@H](c2ccc(Br)cc2)N(S(=O)(=O)c2ccc(C)cc2)[C@@H]1CC
IC50 [1]: > 50 µM
IC50 [2]: 4.8 µM
IC50 [3]: > 100 µM

Structure (SMILES): CCCCC[C@@H]1[C@@H](Sc2ccc(C)cc2)[C@H](C(=O)O)[C@H](c2ccc(C)cc2)N1S(=O)(=O)c1ccc(C)cc1
IC50 [4]: 65 µM
IC50 [1]: 100 µM

Structure (SMILES): NC(=O)[C@H](Cc1ccccc1)NC(=O)C1=CC[C@@H](c2cccc(Cl)c2)N(S(=O)(=O)c2ccc(Br)cc2)[C@H]1c1cccc(Br)c1
IC50 [1]: > 20 µM

Structure (SMILES): CC(C)C[C@H](NC(=O)C1=CC[C@@H](c2cccc(Cl)c2)N(S(=O)(=O)c2ccc(Br)cc2)[C@H]1c1cccc(Br)c1)C(N)=O
IC50 [1]: > 50 µM
GI50 (K562): 4.37 to 12.9 µM
GI50 (Jurkat): 2.22 to 6.38 µM

Structure (SMILES): CC(C)(C)[C@@H]1C=C(C(=O)N[C@@H](Cc2ccccc2)C(N)=O)[C@H](c2ccc(Cl)c(Cl)c2)N1S(=O)(=O)c1c(Cl)cccc1Cl
IC50 [1]: > 50 µM
GI50 (Jurkat): 4.91 to 5.28 µM

Structure (SMILES): CC(C)(C)[C@@H]1C=C(C(=O)O)[C@H](c2ccc(Cl)cc2)N1S(C)(=O)=O
IC50 [4]: 45 µM
IC50 [1]: > 50 µM

Structure (SMILES): CCCCCCS[C@H]1[C@@H](C(=O)O)[C@H](c2ccc(Br)cc2)N(S(=O)(=O)c2ccc(C)cc2)[C@@H]1CCCCCC
IC50 [1]: > 50 µM
IC50 [2]: 2.2 µM
IC50 [3]: > 100 µM

Structure (SMILES): CCC[C@@H]1[C@@H](Sc2ccc(OC)cc2)[C@@H](C(=O)O)[C@H](c2ccc(Br)cc2)N1S(=O)(=O)c1ccc(C)cc1
IC50 [1]: > 50 µM
IC50 [2]: 4.5 µM
IC50 [3]: > 100 µM

Structure (SMILES): Cc1ccc(S(=O)(=O)N2[C@@H](c3ccc(Cl)c(Cl)c3)C(C(=O)O)=C[C@H]2C(C)(C)C)cc1
IC50 [4]: 33 µM
IC50 [1]: 40 µM

Continued, values first:

IC50 [1]: 4.4 µM
Structure (SMILES): CC(C)(C)[C@@H]1C=C(C(=O)O)[C@H](c2ccc(Cl)c(Cl)c2)N1S(=O)(=O)c1c(Cl)cccc1Cl

IC50 [1]: 1.3 to 20 µM
GI50 (K562): 7.69 to 10.3 µM
GI50 (Jurkat): 3.57 to 4.86 µM
Structure (SMILES): NC(=O)[C@H](Cc1ccccc1)NC(=O)C1=CC[C@@H](c2cccc(Cl)c2)N(S(=O)(=O)c2ccc(Br)cc2)[C@H]1c1cccc(Cl)c1

IC50 [1]: 0.3 to 0.45 µM
Structure (SMILES): NC(=O)[C@H](Cc1ccccc1)NC(=O)C1=CC[C@@H](c2cccc(Br)c2)N(S(=O)(=O)c2ccc(Cl)cc2)[C@H]1c1cccc(Cl)c1

Activity (Rattus norvegicus [5]): 30.4%
Activity (Rattus norvegicus [6]): 9.7%
IC50 [1]: 2.4 µM
IC50 [2]: 7 µM
IC50 [3]: > 100 µM
Structure (SMILES): CC(C)(C)OC(=O)CCS[C@H]1[C@@H](C(=O)O)[C@H](c2ccc(Cl)cc2)N(S(=O)(=O)c2ccccc2)[C@@H]1CC1CCCC1

Activity (Rattus norvegicus [5]): 10.9%
Activity (Rattus norvegicus [6]): 1.1%
IC50 [4]: < 2 µM
IC50 [1]: < 2.5 µM
Structure (SMILES): CCC[C@@H]1[C@@H](Sc2ccc(OC)cc2)[C@@H](C(=O)O)[C@H](c2ccc(Cl)c(Cl)c2)N1S(=O)(=O)c1ccc(C)cc1

IC50 [1]: 0.086 to 0.0871 µM
Structure (SMILES): O=C(O)C1=CC[C@@H](c2cccc(Cl)c2)N(S(=O)(=O)c2ccc(Br)cc2)[C@H]1c1cccc(Cl)c1

Activity (Rattus norvegicus [5]): 20.6%
Activity (Rattus norvegicus [6]): 5.6%
IC50 [1]: 8.7 µM
IC50 [2]: 4.7 µM
IC50 [3]: > 100 µM
Structure (SMILES): Cc1ccc(S(=O)(=O)N2[C@H](CC3CCCC3)[C@@H](SCCC(=O)OC(C)(C)C)[C@@H](C(=O)O)[C@@H]2c2cccc(Cl)c2)cc1

IC50 [1]: 0.525 µM
Structure (SMILES): O=C(O)C1=CC[C@@H](c2cccc(Br)c2)N(S(=O)(=O)c2ccc(Br)cc2)[C@H]1c1cccc(Br)c1

IC50 [1]: 0.212 µM
Structure (SMILES): O=C(O)C1=CC[C@@H](c2cccc(Br)c2)N(S(=O)(=O)c2ccc(F)cc2)[C@H]1c1cccc(Cl)c1

IC50 [1]: 0.04 µM
Structure (SMILES): CC(C)C[C@H](NC(=O)C1=CC[C@@H](c2cccc(Cl)c2)N(S(=O)(=O)c2ccc(Br)cc2)[C@H]1c1cccc(Br)c1)C(=O)O

IC50 [4]: 0.6 µM
IC50 [1]: 0.5 µM
Structure (SMILES): COC(=O)[C@H](CC(C)C)NC(=O)c1ccc(NCc2cnc[nH]2)cc1-c1ccccc1C

IC50 [1]: 0.6 µM
Structure (SMILES): NC(=O)[C@H](Cc1ccccc1)NC(=O)C1=CC[C@@H](c2cccc(Cl)c2)N(S(=O)(=O)c2ccc(Cl)cc2)[C@H]1c1cccc(Cl)c1
